Test results reported in US20240041042A1, “1-(PYRIDYL)-5-AZINYLPYRAZOLE DERIVATIVES, AND THEIR USE FOR CONTROL OF UNDESIRED PLANT GROWTH” (Bayer Aktiengesellschaft, priority 2020, published 2024).
Read-outs that look alike come from different tables or passages of the source.

Columns and labels:
Format in all cases: in vivo
[1] = test system: Echinochloa crus-galli (ECHCG); assay: Post-emergence herbicidal action against ECHCG
How it was run: (§1)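 Greenhouse plants sprayed at the one-leaf stage, 2–3 weeks after sowing, with WP or EC formulations plus 0.5% additive at 600 l/ha water. Activity rated visually after about 3 weeks versus untreated controls (100% = dead, 0% = like control), at 320 g/ha or lower.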

[2] = test system: Matricaria inodora (MATIN); assay: Post-emergence herbicidal action against MATIN
How it was run: as §1

[3] = test system: Abutilon theophrasti (ABUTH); assay: Post-emergence herbicidal action against ABUTH; details: visual rating about 3 weeks after treatment vs untreated controls (100% = plants have died, 0% = like control plants)
How it was run: as §1

[4] = test system: Alopecurus myosuroides (ALOMY); assay: Post-emergence herbicidal action against ALOMY; details: visual rating about 3 weeks after treatment vs untreated controls (100% = plants have died, 0% = like control plants)
How it was run: as §1

[5] = test system: Pharbitis purpurea (PHBPU); assay: Post-emergence herbicidal action against PHBPU
How it was run: as §1

Setaria viridis (SETVI) = assay: Post-emergence herbicidal action against SETVI
How it was run: as §1

[6] = test system: Verconica persica (VERPE); assay: Post-emergence herbicidal action against VERPE
How it was run: as §1

Avena fatua (AVEFA) = assay: Post-emergence herbicidal action against AVEFA; details: visual rating about 3 weeks after treatment
How it was run: as §1

Oryza sativa (ORYSA) = details: crop plant compatibility
How it was run: (§2)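 Effects were read visually as % versus untreated controls (0% = no effect, 100% = death) about 3 weeks post-treatment. Application was a post-emergence spray at the one-leaf stage of WP/EC formulations with 0.5% additive at 600 l/ha. Different dosages are denoted a, b and c.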

Viola tricolor (VIOTR) = assay: Post-emergence herbicidal action against VIOTR
How it was run: as §1

Lolium rigidum (LOLRI) = assay: Post-emergence herbicidal action against LOLRI
How it was run: as §1

[7] = test system: Digitaria sanguinalis (DIGSA); assay: Post-emergence herbicidal action against DIGSA; details: visual rating about 3 weeks after treatment
How it was run: as §1

[8] = test system: Amaranthus retroflexus (AMARE); assay: Post-emergence herbicidal action against AMARE
How it was run: as §1

[9] = test system: Polygonum convolvulus (POLCO); assay: Post-emergence herbicidal action against POLCO
How it was run: as §1

Zea mays (ZEAMX) = details: 20 g/ha, ZEAMX, effect in comparison to untreated controls
How it was run: as §2

[10] = 20 g/ha, effect vs untreated controls
[11] = 80 g/ha, visual rating about 3 weeks after treatment vs untreated controls (100% = plants have died, 0% = like control plants)
[12] = 320 g/ha, visual rating about 3 weeks after treatment
[13] = 80 g/ha, effect in comparison to untreated controls

SMILES | Post-emergence action against ECHCG in % ([1]; dosage 80 g/ha) [%] | Post-emergence action against ECHCG in % ([1]; dosage 320 g/ha) [%] | Post-emergence action against MATIN in % ([2]; dosage 80 g/ha) [%] | Post-emergence action against MATIN in % ([2]; dosage 320 g/ha) [%] | Post-emergence action against ABUTH in % ([3]; 320 g/ha) [%] | Post-emergence action against ALOMY in % ([4]; 320 g/ha) [%] | Post-emergence action against PHBPU in % ([5]; dosage 80 g/ha) [%] | Post-emergence action against PHBPU in % ([5]; dosage 320 g/ha) [%] | Post-emergence action against SETVI in % (Setaria viridis (SETVI); dosage 80 g/ha) [%] | Post-emergence action against SETVI in % (Setaria viridis (SETVI); dosage 320 g/ha) [%] | Post-emergence action against VERPE in % ([6]; 320 g/ha, VERPE) [%] | Post-emergence action against VERPE in % ([6]; dosage 80 g/ha) [%] | Post-emergence action against AVEFA in % (Avena fatua (AVEFA); 320 g/ha) [%] | Post-emergence action against ORYSA in % (Oryza sativa (ORYSA); [10]) [%] | Post-emergence action against VIOTR in % (Viola tricolor (VIOTR); 80 g/ha) [%] | Post-emergence action against VIOTR in % (Viola tricolor (VIOTR); 320 g/ha) [%] | Post-emergence action against LOLRI in % (Lolium rigidum (LOLRI); dosage 80 g/ha) [%] | Post-emergence action against LOLRI in % (Lolium rigidum (LOLRI); dosage 320 g/ha) [%] | Post-emergence action against DIGSA in % ([7]; 320 g/ha) [%] | Post-emergence action against POLCO in % ([9]; dosage 320 g/ha) [%] | further results
CCOC(=O)[C@@H](C)Oc1nn(-c2nc(F)ccc2F)c(-c2cncc(F)c2)c1C1CC1 [Example I-177] | 100 | 100 | 90 | 90 | 90 | 100 | 90 | 90 | 90 | 90 | 100 | 100 | 90 | 0 | 100 | 100 | 100 | 100 | 90 | 90 | Post-emergence action against ABUTH in % ([3]; 80 g/ha): 90%; Post-emergence action against AVEFA in % (Avena fatua (AVEFA); 80 g/ha): 90%; Post-emergence action against AMARE in % [8, 11]: 90%; Post-emergence action against AMARE in % [8, 12]: 90%; Post-emergence action against POLCO in % ([9]; dosage 80 g/ha): 90%
COC(=O)C(C)OC(=O)C(C)Oc1nn(-c2ccccn2)c(-c2cncc(F)c2)c1Br (mixture of isomers) [Example I-176] | 80 | 90 |  | 80 | 80 | 90 |  |  | 80 | 80 |  |  |  | 0 |  | 80 | 80 | 80 | 90 | 80 | Post-emergence action against ORYSA in % (Oryza sativa (ORYSA); [13]): 10%; Post-emergence action against DIGSA in % ([7]; 80 g/ha): 80%; Post-emergence action against POLCO in % ([9]; dosage 80 g/ha): 80%
C[C@@H](Oc1nn(-c2ncccc2F)c(-c2cncc(F)c2)c1C1CC1)C(=O)O [Example I-166] | 80 | 80 | 80 | 90 |  | 90 | 80 | 90 | 90 | 90 | 80 | 80 | 90 | 0 | 80 | 80 | 80 | 90 | 90 | 80 | Post-emergence action against ALOMY in % ([4]; 80 g/ha): 90%; Post-emergence action against AVEFA in % (Avena fatua (AVEFA); 80 g/ha): 90%; Post-emergence action against ZEAMX in % (crop plant compatibility) (Zea mays (ZEAMX)): 10%; Post-emergence action against ORYSA in % (Oryza sativa (ORYSA); [13]): 20%; Post-emergence action against DIGSA in % ([7]; 80 g/ha): 90%; Post-emergence action against POLCO in % ([9]; dosage 80 g/ha): 80%
CCOC(=O)[C@@H](C)Oc1nn(-c2ncccc2F)c(-c2cncc(F)c2)c1C1CC1 [Example I-172] | 80 | 90 | 90 | 90 | 80 | 90 | 80 | 90 | 80 | 80 | 90 | 80 | 90 | 20 | 80 | 90 | 90 | 90 | 90 | 80 | Post-emergence action against ALOMY in % ([4]; 80 g/ha): 90%; Post-emergence action against AVEFA in % (Avena fatua (AVEFA); 80 g/ha): 80%; Post-emergence action against DIGSA in % ([7]; 80 g/ha): 80%; Post-emergence action against AMARE in % [8, 12]: 80%
COC(=O)[C@@H](C)Oc1nn(-c2ncccc2F)c(-c2cncc(F)c2)c1I [Example I-197] | 90 | 90 | 80 | 90 | 90 | 90 | 90 | 100 | 90 | 90 | 90 | 90 | 90 | 0 | 90 | 90 | 90 | 90 | 90 | 90 | Post-emergence action against ABUTH in % ([3]; 80 g/ha): 90%; Post-emergence action against ALOMY in % ([4]; 80 g/ha): 90%; Post-emergence action against AVEFA in % (Avena fatua (AVEFA); 80 g/ha): 90%; Post-emergence action against ORYSA in % (Oryza sativa (ORYSA); [13]): 10%; Post-emergence action against DIGSA in % ([7]; 80 g/ha): 90%; Post-emergence action against AMARE in % [8, 11]: 90%; Post-emergence action against AMARE in % [8, 12]: 90%; Post-emergence action against POLCO in % ([9]; dosage 80 g/ha): 90%
COC(=O)COc1nn(-c2ncccc2F)c(-c2ccc(F)nc2)c1Cl [Example I-304] | 80 | 90 | 90 | 90 | 90 | 90 | 80 | 90 | 90 | 90 | 90 | 80 | 90 |  | 80 | 90 |  | 90 | 90 |  | Post-emergence action against ABUTH in % ([3]; 80 g/ha): 80%; Post-emergence action against ZEAMX in % (crop plant compatibility) (Zea mays (ZEAMX)): 20%; Post-emergence action against DIGSA in % ([7]; 80 g/ha): 90%; Post-emergence action against AMARE in % [8, 11]: 80%; Post-emergence action against AMARE in % [8, 12]: 90%
